Holding throughout (experiment): NCI anticancer screen, dose series, 48 h
In assay [1] the test system is SN12C renal.
Assay [2] concerns HCT-116 colon.
Assay [3] has as its system NCI-H226 lung.
Assay [4] has as its system M14 melanoma.
Assay [5] relates to LOX IMVI melanoma.
Assay [6] relates to UACC-62 melanoma.
Assay [7] has as its system SNB-75 CNS.
In assay [8] the test system is MOLT-4 leukemia.
Assay [9] has as its system SW-620 colon.
Assay [10] has as its system UACC-257 melanoma.
Assay [11] relates to OVCAR-5 ovarian.

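Where inhibition never reached the appropriate level, the endpoint shown equals the highest concentration tested. Otherwise, values were interpolated linearly from a five-concentration, 48-hour dose response in 96-well plates. At the GI50, growth is halved. TGI marks complete inhibition of growth.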

As for `Nc1nncs1`, the TGI in assay [1] is more than 5000 µM; in assay [2], more than 5000 µM; in assay [3] it was more than 5000 µM; in [4], more than 5000 µM; in assay [5], more than 5000 µM; in assay [6], more than 3890 µM. Besides, the TGI in assay [7] was more than 3710 µM; in assay [8], more than 4900 µM; in assay [9] it was more than 5000 µM; in assay [10] it was more than 4200 µM; in assay [11], more than 4450 µM.

In the case of `O=C(O)C(Br)Cc1ccc2c(c1)OCO2` (stereo not given), the TGI in [1], in [2], in assay [4], in assay [6], in [7] and in assay [8] was more than 100 µM throughout. Besides, the TGI in assay [9], in assay [10] and in assay [11] was more than 100 µM each time.

For the compound `COc1cc2c3c(n(C4CCNCC4)c(=O)c2cc1OC)-c1cc2c(cc1C3=O)OCO2`, in assay [3], the GI50 was 0.635 µM and the TGI was 2.94 µM. Moreover, in assay [9], the GI50 is 0.225 µM and the TGI came out at 1.95 µM.

As for `COc1ccc(/C=C/[N+](=O)[O-])cc1`, the TGI in [1] is 56 µM; in assay [2] it was more than 100 µM; in assay [3], 17.4 µM; in assay [4], 6.48 µM; in assay [6], 39.7 µM; in [7], more than 100 µM. In addition, the TGI in assay [8] was 12.8 µM; in assay [9], more than 100 µM; in assay [10], 8.09 µM; in assay [11], 50.8 µM.

With `NC(=O)c1cc(C2OC(CO)C(O)C2O)nn1-c1ccc([N+](=O)[O-])cc1` (stereo not given), the TGI in [1], in [2], in [3], in assay [4], in [5] and in assay [6] was more than 100 µM throughout. Further, the TGI in [7], in [8], in [9], in [10] and in assay [11] was more than 100 µM throughout.

`CC1(C)N=C(N)N=C(N)N1c1cccc(OCc2cccc([N+](=O)[O-])c2)c1`: the TGI in assay [1], in assay [2], in assay [3], in assay [4], in [5] and in [6] was more than 100 µM throughout. In addition, the TGI in assay [7] was more than 100 µM; in assay [8] it was more than 100 µM; in assay [9], more than 100 µM; in [10], 48.2 µM; in assay [11], more than 100 µM.

Consider `O=C(O)CNCc1c2ccccc2[n+]([O-])c2ccccc12`, for which the TGI in [1], in assay [2], in [3], in assay [4], in [5] and in assay [6] was more than 100 µM in each case. The TGI in assay [7], in [8], in [9], in [10] and in assay [11] was more than 100 µM each time.

`S=C1NN=C2C(=C3CCCC4C5CCCCC5N2C34)N1` (stereo not given): the TGI in [3], in assay [4], in [5], in assay [8], in assay [9] and in assay [10] was more than 100 µM each time. This compound registered a TGI in assay [11] of more than 100 µM.

With `O=C1c2ccccc2C(=O)c2c(O)c(O)cc(O)c21`, the TGI is more than 100 µM in assay [1]; 77.1 µM in [2]; more than 100 µM in assay [4]; more than 100 µM in [5]; 64.8 µM in assay [6]; more than 100 µM in assay [7]. Further, the TGI in [8] was 97.9 µM; in assay [9] it was more than 100 µM; in [10], more than 100 µM; in [11], more than 100 µM.

As to `O=C(O)Cc1[nH]cnc1C(=O)O`, the TGI in [1], in assay [2], in [3], in [4], in assay [5] and in assay [6] was more than 100 µM in each case. Moreover, the TGI in assay [7], in assay [8], in [9], in [10] and in assay [11] was more than 100 µM in each case.

Take `COC1/C=C\OC2(C)Oc3c(C)c(O)c4c(O)c(c(CN(C)C)c(O)c4c3C2=O)NC(=O)/C(C)=C\C=C/C(C)C(O)C(C)C(O)C(C)C(OC(C)=O)C1C` (stereo not given): the TGI is 83.8 µM in assay [1]; 37.9 µM in assay [2]; more than 100 µM in assay [3]; 42.1 µM in [4]; 35 µM in assay [5]; 41.2 µM in assay [6]. Besides, the TGI was more than 100 µM in assay [7]; 38.9 µM in [8]; 75.6 µM in assay [9]; 60.9 µM in [10]; more than 100 µM in assay [11].

As to `COc1ccc(/C(Cl)=C(\C=O)c2ccc(Cl)c(Cl)c2)cc1OC`, the TGI in assay [1] came to 18.7 µM; in assay [2] it was 15.2 µM; in assay [3] it was 18.6 µM; in [4], 26.3 µM; in assay [5], 13.6 µM; in [6], 24.2 µM. Also, the TGI in assay [7] worked out at 0.938 µM; in [8], 5.76 µM; in assay [9], 16.3 µM.

In the case of `CCCCCCCCCCCCCCCCOCCCOP(=O)(O)C1CCCN(O)C1=O` (stereo not given), the GI50 was 1.53 µM in assay [1]; 2.1 µM in assay [3]; 2.86 µM in [5]; 1.29 µM in assay [6]; 2.13 µM in assay [7]; 1.6 µM in assay [8]. In addition, the GI50 in assay [9] is 1.47 µM; in assay [10], 3.23 µM; in assay [11], 1.63 µM. In addition, the TGI in [1] was determined as 12.8 µM; in [3], 14.3 µM; in [5], 11.4 µM; in [6], 7.18 µM; in [7] it was 15 µM; in assay [8], 19.7 µM. For the same compound, the TGI came out at 22.3 µM in assay [9], 14.8 µM in assay [10] and 18.6 µM in assay [11].

Consider `COC(=O)c1nc2c3c(cccc3c1C(=O)OC)Nc1ccccc1-2`, for which the TGI in assay [1] is more than 100 µM; in assay [2], more than 100 µM; in [3], more than 100 µM; in assay [4], more than 100 µM; in assay [5], more than 100 µM; in [6], 55.7 µM. Also, the TGI in assay [7], in assay [8], in [9], in assay [10] and in assay [11] was more than 100 µM in each case.

Consider `COc1cc2c3c(c4cc(OC)c(OC)cc4c2cc1OC)[C@H](O)[C@@H]1CCCN1C3`, for which the TGI is 1.42 µM in [1]; 7.64 µM in assay [2]; 3.64 µM in [3]; 2.06 µM in assay [4]; 2.75 µM in assay [5]; 0.395 µM in [6]. For the same compound, the TGI in [7] was 0.252 µM; in assay [8], more than 100 µM; in assay [9], more than 100 µM; in [10], 1.15 µM; in assay [11], 0.732 µM.
